Laboratory results published in patent US20240174618A1, “SUBSTITUTED (2-HETEROARYLOXYPHENYL)SULFONATES, SALTS THEREOF AND THEIR USE AS HERBICIDAL AGENTS” (Bayer Aktiengesellschaft, priority 2021, published 2024).

Columns and labels:
Format in all cases: in vivo
[1] = tested on: Triticum aestivum (TRZAS); assay: D. Pre-emergence effect on useful plants, TRZAS; conditions: useful plant
In short: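 Seeds sown in pots and covered with soil; WP or EC formulations sprayed on the soil surface as aqueous suspension/emulsion with 0.5% additive at 600 l/ha water. Plants grown in greenhouse; crop damage scored visually after about 3 weeks as % versus untreated controls (100% = dead, 0% = like control).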

[2] = tested on: Echinochloa crus-galli (ECHCG); assay: E. Herbicidal post-emergence efficacy, ECHCG
In short: (§1)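 Greenhouse post-emergence spray, one-leaf stage (2–3 wk after sowing, sandy loam); WP/EC formulation, aqueous + 0.5% additive, 600 l/ha water; rates 320 g/ha or less. Visual rating ~3 wk later vs untreated; 0% = control-like, 100% = dead.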

Veronica persica (VERPE) [3] = assay: A. Herbicidal pre-emergence efficacy, VERPE; conditions: for Pre-emergence efficacy against VERPE: dosage 80 g/ha
In short: (§2)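 Pre-emergence soil-surface spray in sandy loam pots, WP/EC in water plus 0.5% additive, 600 L/ha. Visual % damage rating after about 3 weeks in greenhouse vs. untreated; 0% = control-like, 100% = dead plants. Rates up to 1280 g/ha.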

[4] = tested on: Echinochloa crus-galli (ECHCG); assay: C. Herbicidal pre-emergence efficacy, ECHCG; conditions: scored after about 3 weeks
In short: (§3)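 Pre-emergence test: formulated compounds sprayed as aqueous suspension or emulsion with 0.5% additive at 600 l/ha onto soil covering sown seeds, at rates corresponding to 320 g/ha or less. After about 3 weeks in greenhouse, efficacy scored visually as percent versus untreated controls (100% = plants dead).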

[5] = tested on: Digitaria sanguinalis (DIGSA); assay: B. Herbicidal post-emergence efficacy, DIGSA; conditions: rated visually after about 3 weeks
In short: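 Post-emergence greenhouse test: one-leaf-stage plants, compound (WP/EC, +0.5% additive, 600 L/ha water, ≤1280 g/ha) applied to green parts; % efficacy scored visually vs untreated after ~3 wk; 100% = plants died.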

Kochia scoparia (KCHSC) = assay: C. Herbicidal pre-emergence efficacy, KCHSC
In short: as §3

Lolium rigidum (LOLRI) = assay: A. Herbicidal pre-emergence efficacy, LOLRI
In short: as §2

Veronica persica (VERPE) [6] = assay: E. Herbicidal post-emergence efficacy, VERPE
In short: as §1

[7] = tested on: Polygonum convolvulus (POLCO); assay: E. Herbicidal post-emergence efficacy, POLCO
In short: as §1

SMILES | Pre-emergence efficacy against TRZAS in % ([1]; application rate 80 g/ha) [%] | Pre-emergence efficacy against TRZAS in % ([1]; application rate 320 g/ha) [%] | Post-emergence efficacy against ECHCG in % ([2]; application rate 320 g/ha) [%] | Pre-emergence efficacy against VERPE in % (Veronica persica (VERPE) [3]; 320 g/ha) [%] | Pre-emergence efficacy against VERPE in % (Veronica persica (VERPE) [3]; 1280 g/ha) [%] | Pre-emergence efficacy against VERPE (Veronica persica (VERPE) [3]) [%] | Pre-emergence efficacy against ECHCG ([4]; 320 g/ha) [%] | Post-emergence efficacy against DIGSA in % ([5]; 320 g/ha) [%] | Post-emergence efficacy against DIGSA in % ([5]; 1280 g/ha) [%] | Pre-emergence efficacy against KCHSC in % (Kochia scoparia (KCHSC); application rate 80 g/ha) [%] | Pre-emergence efficacy against KCHSC in % (Kochia scoparia (KCHSC); application rate 320 g/ha) [%] | Pre-emergence efficacy against LOLRI (Lolium rigidum (LOLRI); dosage 1280 g/ha) [%] | Post-emergence efficacy against VERPE in % (Veronica persica (VERPE) [6]; application rate 80 g/ha) [%] | Post-emergence efficacy against VERPE in % (Veronica persica (VERPE) [6]; application rate 320 g/ha) [%] | Post-emergence efficacy against POLCO in % ([7]; application rate 80 g/ha) [%] | Post-emergence efficacy against POLCO in % ([7]; application rate 320 g/ha) [%] | Pre-emergence efficacy against ECHCG ([4]; 80 g/ha) [%] | Post-emergence efficacy against ECHCG in % ([2]; application rate 80 g/ha) [%] | Pre-emergence efficacy against LOLRI (Lolium rigidum (LOLRI); dosage 320 g/ha) [%]
O=S(=O)(CCCC(F)(F)F)Oc1c(Cl)cccc1Oc1ncc(Br)cn1 [Example I-34] | 0 | 0 | 90 | 90 | 100 |  | 90 |  | 100 | 90 | 100 |  | 100 | 100 |  | 100 |  |  | 
C=CCS(=O)(=O)Oc1ccccc1Oc1ncc(Cl)cn1 [Example I-36] | 0 | 0 |  |  | 100 |  | 80 |  |  |  | 100 | 100 | 80 | 100 |  |  |  |  | 
O=S(=O)(CCCC(F)(F)F)Oc1c(F)cccc1Oc1ncc(Br)cn1 [Example I-41] | 20 |  | 100 | 100 | 100 | 90 | 100 | 90 | 90 | 100 | 100 | 100 | 100 | 100 | 100 | 100 | 100 | 90 | 100
O=S(=O)(CCC(F)(F)F)Oc1c(Br)cccc1Oc1ncc(F)cn1 [Example I-43] | 0 |  |  | 100 | 100 |  | 90 |  |  | 100 | 100 | 100 | 100 | 100 |  | 90 |  |  | 100
Cc1cccc(Oc2ncc(F)cn2)c1OS(=O)(=O)CCC(F)(F)F [Example I-45] | 0 |  |  | 100 | 100 |  | 100 |  |  | 90 | 100 | 100 | 80 | 100 |  | 100 | 100 |  | 100
O=S(=O)(CCC1CC1)Oc1c(F)cccc1Oc1ncc(Cl)cn1 [Example I-55] | 0 |  | 100 | 100 | 100 |  | 100 | 90 | 90 | 80 | 100 | 100 | 100 | 100 | 90 | 100 | 90 | 90 | 
O=S(=O)(CCCC(F)(F)C(F)(F)F)Oc1c(F)cccc1Oc1ncc(Cl)cn1 [Example I-68] | 0 | 10 | 90 | 100 | 100 |  | 90 | 90 | 100 | 100 | 100 | 100 | 100 | 100 | 80 | 90 |  |  | 
Cc1cccc(Oc2ncc(Cl)cn2)c1OS(=O)(=O)CC1CC(F)(F)C1 [Example I-74] | 0 |  | 100 | 100 | 100 | 90 | 100 | 90 | 100 |  | 90 | 100 | 90 | 100 |  |  |  |  | 
N#Cc1cccc(Oc2ncc(Cl)cn2)c1OS(=O)(=O)CCCC(F)(F)F [Example I-81] | 0 |  | 80 |  |  |  | 100 |  |  | 100 | 100 |  | 100 | 100 | 90 | 100 |  | 80 | 

The next lines start with results.

Pre-emergence efficacy against TRZAS in % ([1]; application rate 80 g/ha) [%] | Pre-emergence efficacy against TRZAS in % ([1]; application rate 320 g/ha) [%] | SMILES | Post-emergence efficacy against ECHCG in % ([2]; application rate 320 g/ha) [%] | Pre-emergence efficacy against VERPE in % (Veronica persica (VERPE) [3]; 320 g/ha) [%] | Pre-emergence efficacy against VERPE in % (Veronica persica (VERPE) [3]; 1280 g/ha) [%] | Pre-emergence efficacy against VERPE (Veronica persica (VERPE) [3]) [%] | Pre-emergence efficacy against ECHCG ([4]; 320 g/ha) [%] | Post-emergence efficacy against DIGSA in % ([5]; 320 g/ha) [%] | Post-emergence efficacy against DIGSA in % ([5]; 1280 g/ha) [%] | Pre-emergence efficacy against KCHSC in % (Kochia scoparia (KCHSC); application rate 80 g/ha) [%] | Pre-emergence efficacy against KCHSC in % (Kochia scoparia (KCHSC); application rate 320 g/ha) [%] | Pre-emergence efficacy against LOLRI (Lolium rigidum (LOLRI); dosage 1280 g/ha) [%] | Post-emergence efficacy against VERPE in % (Veronica persica (VERPE) [6]; application rate 80 g/ha) [%] | Post-emergence efficacy against VERPE in % (Veronica persica (VERPE) [6]; application rate 320 g/ha) [%] | Post-emergence efficacy against POLCO in % ([7]; application rate 80 g/ha) [%] | Post-emergence efficacy against POLCO in % ([7]; application rate 320 g/ha) [%] | Pre-emergence efficacy against ECHCG ([4]; 80 g/ha) [%] | Post-emergence efficacy against ECHCG in % ([2]; application rate 80 g/ha) [%] | Pre-emergence efficacy against LOLRI (Lolium rigidum (LOLRI); dosage 320 g/ha) [%]
0 | 10 | O=S(=O)(CCC(F)(F)F)Oc1c(Cl)cccc1Oc1ncc(Br)cn1 [Example I-32] | 90 | 90 | 100 | 90 | 90 | 90 | 100 | 100 | 100 | 90 | 100 | 100 | 80 | 100 |  |  | 
0 |  | O=S(=O)(CCC(F)(F)F)Oc1c(Cl)cccc1Oc1ncc(Cl)cn1 [Example I-38] | 100 | 90 | 100 | 90 | 100 |  | 90 | 100 | 100 | 100 | 100 | 100 | 100 | 100 | 100 |  | 
0 |  | C=CCCS(=O)(=O)Oc1c(F)cccc1Oc1ncc(Cl)cn1 [Example I-50] | 100 | 100 | 100 | 90 | 100 |  | 90 | 90 | 100 | 90 | 90 | 100 |  | 100 | 80 |  | 90
0 |  | COCCS(=O)(=O)Oc1c(F)cccc1Oc1ncc(Cl)cn1 [Example I-52] | 100 | 100 | 100 |  | 100 |  | 90 | 100 | 100 | 100 | 100 | 100 |  | 80 | 100 |  | 
0 |  | O=S(=O)(CCC(F)=C(F)F)Oc1c(F)cccc1Oc1ncc(Cl)cn1 [Example I-70] | 100 |  |  |  | 100 |  |  | 100 | 100 |  | 100 | 100 |  | 100 | 90 | 80 | 
0 | 20 | O=S(=O)(CCC(F)=C(F)F)Oc1c(Cl)cccc1Oc1ncc(Cl)cn1 [Example I-73] |  |  | 100 |  | 90 | 90 | 100 |  | 100 | 90 | 90 | 100 |  |  |  |  | 
